Article PMC12321279, “Novel 4,5‐Dihydrothiazole‐Phenylpiperazine Derivatives: Synthesis, Docking Studies and Pharmacological Evaluation as Serotonergic Agents” (Chemmedchem, 2025)

Legend:
[1] = test system: mice; assay: DOI‐induced head‐twitch reaction (HTR); assay type: in vivo; details: 30 mg kg^−1 i.p. 60 min before DOI, 20 min observation
Procedure: (§1) The tests were performed on male white mice of the Albino Swiss strain, whose weight was between 24 and 30 g in Experimental Medicine Center, Medical University of Lublin, Poland. The animals were housed (four/five per cage). Before conducting the experimental tests, the animals were subjected to an adaptation that lasted seven days. This consisted of keeping them in a room with relatively constant conditions: a temperature of 22 ± 1 °C, a humidity of 55 ± 5% and lighting that mimicked the natural day and night rhythm (12 h/12 h). Constant access to food and water was provided. Standard feed—LSM Motycz pelleted feed—and tap water were used. Mice were randomly allocated to study groups. Each group was represented by 8–10 animals, depending on the research schedule. The experiments were performed according to the procedures set out in the regulations for animal experiments: National Institute of Health Guidelines for the Care and Use of Laboratory Animals (8th edition) and to the European Community Council Directive for the Care and Use of Laboratory Animals of 22 September 2010 (2010/63/EU). […]
Head‐twitch reaction (HTR) is a very characteristic behavior of the head. […] Then, after administration of the tested compounds, DOI was immediately observed for 20 min, and the number of HTR was counted. […]

[2] = test system: mice; assay: Novel object recognition (NOR) test; assay type: in vivo; details: doses of 30 and 15 mg kg^−1 i.p. 60 min prior to first trial
Procedure: as §1, with “schedule.” for “schedule. The experiments were performed according to the procedures set out in the regulations for animal experiments: National Institute of Health Guidelines for the Care and Use of Laboratory Animals (8th edition) and to the European Community Council Directive for the Care and Use of Laboratory Animals of 22 September 2010 (2010/63/EU).”
The setup for the NOR test consisted of a square, open‐ended Plexiglas box (46 cm long × 35 cm high × 33 cm wide), with a 10‐lux light source suspended 50 cm above it. […] The duration of exploration of each object at T1, T2, and T3 was manually recorded using a stopwatch. The discrimination between F and N during T2 or T3 was assessed by comparing the time spent exploring each of them. Memory performance was assessed using the DI, calculated as (N − F)/ (N + F), representing the difference in exploration time between N and F, normalized by the total exploration time for both objects. […]

| SMILES | DOI‐induced HTR (number of head twitches) [1] | NOR test, memory consolidation expressed by the discrimination index (DI) [2] |
| --- | --- | --- |
| O=C(NCCCN1CCN(c2ccc(C3=NCCS3)cc2)CC1)C1CC2C=CC1C2 (stereo not drawn) [FG‐18, Endo‐ N‐(3‐(4‐(4‐(4,5‐dihydrothiazol‐2‐yl)phenyl)piperazin‐1‐yl)propyl) bicyclo[2.2.1]hept‐5‐ene‐2‐carboxamide] | significant decrease in HTR |  |
| O=C1C2C3C=CC(C3)C2C(=O)N1OCCCN1CCN(c2ccccc2C2=NCCS2)CC1 (stereo not drawn) [FG‐7, 2‐(3‐(4‐(2‐(4,5‐dihydrothiazol‐2‐yl) phenyl) piperazin‐1‐yl) propoxy)‐3a,4,7,7a‐tetrahydro‐1 H‐4,7‐methanoisoindole‐1,3(2 H)‐dione] |  | showed activity in the novel object recognition (NOR) test |
| O=C(NCCCN1CCN(c2ccccc2C2=NCCS2)CC1)c1ccccn1 [FG‐1, N‐(3‐(4‐(2‐(4,5‐dihydrothiazol‐2‐yl) phenyl) piperazin‐1‐yl) propyl) picolinamide] | significant decrease in HTR |  |
